Data published in US20200009275A1, “PIGMENT-COUPLED MANNOSYL SERUM ALBUMIN COMPLEX AND LYMPH NODE-PROBING COMPOSITION COMPRISING SAME” (priority 2017, published 2020).

Legend:
MSA = target: T1, MSA (Homo sapiens, UniProt P02768); assay: TLC measurement of pigment not coupled to MSA; type: binding
T1 construct: purchased Green Cross Corp., Korea
Method: 2 ml of 200 mg/mL MSA was added thereto to prepare the reaction mixture in total volume of 3 mL. […]
Upon completion of the reaction, the amount of the pigment not coupled to MSA was measured by performing thin layer chromatography (TLC) with the pigment-coupled MSA hourly. At this time, methanol and methylene chloride (MeOH:MeCl2) mixture was used as a solvent and the results were quantitatively analyzed by multi-gauge 3.0 software using LAS3000 (Fuji Film).

[1] = Absorption peak and molecular extinction coefficient of pigment-coupled MSA; type: physicochemical; settings: for Wavelength (absorption peak): scan 350 nm to 850 nm
Method: The pigment-coupled MSA solution was loaded in a 96-well plate, which was scanned with visible light ranging between 350 nm and 850 nm to measure the absorbance at the peak of absorption spectrum using Varioskan Flash (Thermo Fisher Scientific Inc., Finland) spectrometer. The molecular extinction coefficient was measured by calculating the absorbance per 1 cm length according to Beer-Lambert law.

T1 sequence (P02768 25-609): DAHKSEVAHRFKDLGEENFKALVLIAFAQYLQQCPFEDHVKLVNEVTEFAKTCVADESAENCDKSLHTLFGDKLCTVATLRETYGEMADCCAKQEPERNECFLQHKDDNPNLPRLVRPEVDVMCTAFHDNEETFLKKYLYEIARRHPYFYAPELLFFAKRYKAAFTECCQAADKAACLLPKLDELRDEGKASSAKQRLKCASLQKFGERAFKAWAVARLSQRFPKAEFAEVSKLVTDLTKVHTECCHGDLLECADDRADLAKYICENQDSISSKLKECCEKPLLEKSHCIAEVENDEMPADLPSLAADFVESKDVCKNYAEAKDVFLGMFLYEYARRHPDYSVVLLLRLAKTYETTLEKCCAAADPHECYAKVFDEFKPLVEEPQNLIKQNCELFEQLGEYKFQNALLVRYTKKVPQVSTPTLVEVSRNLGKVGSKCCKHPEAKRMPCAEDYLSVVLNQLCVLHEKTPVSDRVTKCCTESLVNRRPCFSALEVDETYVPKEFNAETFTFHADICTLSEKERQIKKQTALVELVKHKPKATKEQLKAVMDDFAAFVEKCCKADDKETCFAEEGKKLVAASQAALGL

Molecule: Nc1c(N=Nc2ccc([N+](=O)[O-])cc2)c(S(=O)(=O)[O-])cc2cc(S(=O)(=O)[O-])c(N=Nc3ccccc3)c(O)c12.[Na+].[Na+] [NBB, naphthol blue black]
- Percentage of pigment not coupled to MSA (MSA; 10 min): 0.0 ± 0.0%
- Percentage of pigment not coupled to MSA (MSA; 30 min): 0.0 ± 0.0%
- Percentage of pigment not coupled to MSA (MSA; 1 hr): 0.0 ± 0.0%
- Percentage of pigment not coupled to MSA (MSA; 2 hr): 0.0 ± 0.0%
- Percentage of pigment not coupled to MSA (MSA; 6 hr): 0.2 ± 0.3%
- Percentage of pigment not coupled to MSA (MSA; 24 hr): 0.0 ± 0.0%
- Binding of pigment to MSA (in words) (MSA; Table 2): bind stably and strongly to MSA and high
- Binding of pigment to MSA (in words) (MSA; Table 2, listed as naphthol blue black): stably bound
- ε (molecular extinction coefficient) ([1]; at absorption peak, per 1 cm, Beer-Lambert law): 62222
- Wavelength (absorption peak) [1]: 620 nm

Molecule: brilliant blue R
- Percentage of pigment not coupled to MSA (MSA; 10 min): 7.8 ± 0.5%
- Percentage of pigment not coupled to MSA (MSA; 30 min): 7.6 ± 0.8%
- Percentage of pigment not coupled to MSA (MSA; 1 hr): 7.7 ± 0.9%
- Percentage of pigment not coupled to MSA (MSA; 2 hr): 6.3 ± 0.5%
- Percentage of pigment not coupled to MSA (MSA; 6 hr): 5.9 ± 0.6%
- Percentage of pigment not coupled to MSA (MSA; 24 hr): 3.8 ± 0.6%

Molecule: nitrazine yellow [NY]
- Percentage of pigment not coupled to MSA (MSA; 10 min): 9.6 ± 0.5%
- Percentage of pigment not coupled to MSA (MSA; 30 min): 8.4 ± 0.5%
- Percentage of pigment not coupled to MSA (MSA; 1 hr): 7.2 ± 0.4%
- Percentage of pigment not coupled to MSA (MSA; 2 hr): 6.4 ± 0.4%
- Percentage of pigment not coupled to MSA (MSA; 6 hr): 0.4 ± 0.6%
- Percentage of pigment not coupled to MSA (MSA; 24 hr): 0.1 ± 0.2%
- Wavelength (absorption peak) [1]: 560 nm
